Laboratory results reported in paper PMC11050952 (Marine Drugs, 2024).
“And” between values parts separate entries of the source, which are not always exact repeats. Identical values can stand only once. “Also recorded” adds a separate entry of the source. Like-named read-outs stand apart in the source and are kept apart here.

Assays:
[1] = tested on: Nav currents in Neuro-2a cells (voltage-gated sodium channels, VGSCs); assay type: cell-based, murine
Neuro-2a cells = settings: cited from earlier work
[2] = read-out: IC50 (inhibition of Nav currents)

CCN(CC)CC(=O)Nc1c(C)cccc1C [Lidocaine, lidocaine]
IC50 [1, 2]: 717000 nM

NC1=N[C@H](O)[C@H]2[C@H]3O[C@]4(O)O[C@@H]([C@@H](O)[C@@]2(N1)[C@@H]4O)[C@]3(O)CO [TTX, Tetrodotoxin]
Hill Slope [1]: 0.997 ± 0.068 and 0.910 ± 0.120 and 1.167 ± 0.204 and 0.801 ± 0.149 and 1.089 ± 0.097 | Reversibility of Nav current blockage [1]: could be reversed | TTX concentration giving 20% blockade (minimum detectable blockade) [1]: 0.5 ng/mL | Inhibition of Nav currents ([1]; 0.1 µM): completely inhibited; also recorded: complete inhibitions | IC50 ([1]; read-out: IC50 (blockade of Nav currents)): 6.4 nM | IC50 ([1]; read-out: IC50 Value): 4.93 nM and 5.02 nM and 5.12 nM and 4.26 nM and 6.38 nM

C[C@@H]1C[C@@H]2[C@@H](O)N=C(N)N[C@]23[C@H](O)C(=O)O[C@H]1[C@H]3O [5,6,11-trideoxyTTX]
Toxicity equivalency factor (TEF) (Neuro-2a cells): 0.011

CCCCNc1ccc(C(=O)OCCN(C)C)cc1 [tetracaine]
IC50 [1, 2]: 22500 nM
